Reference: US10717716B2, “1,3,4-oxadiazole derivative compounds as histone deacetylase 6 inhibitor, and the pharmaceutical composition comprising the same” (Chong Kun Dang Pharmaceutical Corp., priority 2015, dated 2020)
pIC50: −log10 of the molar value.

Target: T1, human recombinant HDAC6 (Homo sapiens, UniProt Q9UBN7)
T1 construct: purchased Calbiochem 382180
T1 sequence (Q9UBN7 1-1215): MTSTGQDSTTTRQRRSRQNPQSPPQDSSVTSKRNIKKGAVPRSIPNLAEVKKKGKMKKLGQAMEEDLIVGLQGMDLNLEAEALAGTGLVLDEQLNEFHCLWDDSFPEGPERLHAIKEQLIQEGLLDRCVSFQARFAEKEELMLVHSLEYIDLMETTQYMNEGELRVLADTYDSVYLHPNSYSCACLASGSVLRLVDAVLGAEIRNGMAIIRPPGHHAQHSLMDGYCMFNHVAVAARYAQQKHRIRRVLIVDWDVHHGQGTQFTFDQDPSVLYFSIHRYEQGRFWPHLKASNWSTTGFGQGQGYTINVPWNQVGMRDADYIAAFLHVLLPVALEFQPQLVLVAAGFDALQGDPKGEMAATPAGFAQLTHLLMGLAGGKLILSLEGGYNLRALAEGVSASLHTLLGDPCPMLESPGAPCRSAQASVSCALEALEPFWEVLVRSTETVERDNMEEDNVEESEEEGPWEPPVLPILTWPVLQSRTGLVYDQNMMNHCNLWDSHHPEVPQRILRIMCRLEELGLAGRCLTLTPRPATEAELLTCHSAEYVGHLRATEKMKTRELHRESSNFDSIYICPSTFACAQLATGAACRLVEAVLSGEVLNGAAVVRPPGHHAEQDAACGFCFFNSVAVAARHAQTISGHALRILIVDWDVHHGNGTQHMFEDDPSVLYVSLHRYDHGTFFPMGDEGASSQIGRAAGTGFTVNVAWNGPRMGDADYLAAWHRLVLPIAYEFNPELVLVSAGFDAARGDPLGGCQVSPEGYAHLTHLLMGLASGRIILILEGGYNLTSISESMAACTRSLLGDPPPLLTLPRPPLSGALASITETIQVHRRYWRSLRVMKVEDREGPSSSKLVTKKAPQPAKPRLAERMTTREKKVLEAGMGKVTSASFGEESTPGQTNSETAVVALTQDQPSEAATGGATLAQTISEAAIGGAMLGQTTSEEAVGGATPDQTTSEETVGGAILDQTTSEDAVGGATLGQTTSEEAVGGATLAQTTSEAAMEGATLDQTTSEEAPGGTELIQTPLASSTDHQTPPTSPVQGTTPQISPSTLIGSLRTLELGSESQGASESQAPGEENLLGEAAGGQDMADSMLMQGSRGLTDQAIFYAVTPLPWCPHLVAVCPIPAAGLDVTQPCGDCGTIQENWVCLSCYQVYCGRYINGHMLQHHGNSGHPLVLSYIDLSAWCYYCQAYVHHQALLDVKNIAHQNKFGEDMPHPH
Assay: HDAC6 enzyme activity inhibition assay (HDAC Fluorimetric Drug Discovery Kit)
Type: biochemical
Conditions: for HDAC6 selectivity (fold): HDAC6 over HDAC1; for pIC50: human recombinant HDAC6, same protocol as HDAC1, read-out: HDAC6
Method in brief: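 Human recombinant HDAC1 or HDAC6 (0.3 μg) reacted with 10 μM Fluor de Lys-SIRT1 substrate and 5-fold compound dilutions for 60 min at 30 °C. Developer II added for 30 min, fluorescence read at Ex 360/Em 460; IC50 calculated from the readings.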

SMILES | HDAC6 selectivity (fold) | pIC50
CN(C)CCNC(=O)N(Cc1ccc(-c2nnc(C(F)F)o2)cc1)c1ccccc1 [Compound 21577, 1-(4-(5-(Difluoromethyl)-1,3,4-oxadiazol-2-yl)benzyl)-3-(2-(dimethylamino)ethyl)-1-phenylurea] | 152 | 7.18
CC(C)(C)c1ccc(N(Cc2ccc(-c3nnc(C(F)F)o3)cc2F)C(=O)N2CCS(=O)(=O)CC2)cc1 [Compound 21461, N-(4-(tert-butyl)phenyl)-N-(4-(5-(difluoromethyl)-1,3,4-oxadiazol-2-yl)-2-fluorobenzyl)thiomorpholine-4-carboxamide 1,1-dioxide] | 14 | 6.14
O=C(N1CCOCC1)N(Cc1ccc(-c2nnc(C(F)(F)F)o2)cc1)c1ccccn1 [Compound 21424, N-(pyridin-2-yl)-N-(4-(5-(trifluoromethyl)-1,3,4-oxadiazol-2-yl)benzyl)morpholine-4-carboxamide] | 54 | 6.74
O=C(N1CCS(=O)(=O)CC1)N(Cc1ccc(-c2nnc(C(F)F)o2)cc1F)c1ccc(CN2CCC(F)(F)CC2)cc1 [Compound 21916, N-(4-(5-(difluoromethyl)-1,3,4-oxadiazol-2-yl)-2-fluorobenzyl)-N-(4-((4,4-difluoropiperidin-1-yl)methyl)phenyl)thiomorpholine-4-carboxamide 1,1-dioxide] | 43 | 6.63
O=C(NCCN1CCC(Cc2ccccc2)CC1)N(Cc1ccc(-c2nnc(C(F)F)o2)cc1F)c1ccccc1 [Compound 22004, 3-(2-(4-Benzylpiperidin-1-yl)ethyl)-1-(4-(5-(difluoromethyl)-1,3,4-oxadiazol-2-yl)-2-fluorobenzyl)-1-phenylurea] | 24 | 6.39
CC(C)(C)N1CCN(C(=O)N(Cc2ccc(-c3nnc(C(F)(F)F)o3)cc2)c2ccccc2)CC1 [Compound 21381, 4-(Tert-butyl)-N-phenyl-N-(4-(5-(trifluoromethyl)-1,3,4-oxadiazol-2-yl)benzyl)piperazine-1-carboxamide] | 76 | 6.88
CCN1CCN(CCCCOc2ccc(N(Cc3ccc(-c4nnc(C(F)F)o4)cc3F)C(=O)N3CCS(=O)(=O)CC3)cc2)CC1 [Compound 21973, N-(4-(5-(difluoromethyl)-1,3,4-oxadiazol-2-yl)-2-fluorobenzyl)-N-(4-(4-(4-ethylpiperazin-1-yl)butoxy)phenyl)thiomorpholine-4-carboxamide 1,1-dioxide] | 39 | 6.59
O=C1CCN(CCNC(=O)N(Cc2ccc(-c3nnc(C(F)F)o3)cc2F)c2ccccc2)CC1 [Compound 21991, 1-(4-(5-(Difluoromethyl)-1,3,4-oxadiazol-2-yl)-2-fluorobenzyl)-3-(2-(4-oxopiperidin-1-yl)ethyl)-1-phenylurea] | 120 | 7.08
O=C(N1CCN(c2ccccc2)CC1)N(Cc1ccc(-c2nnc(C(F)(F)F)o2)cc1)c1ccccc1 [Compound 21358, N,4-diphenyl-N-(4-(5-(trifluoromethyl)-1,3,4-oxadiazol-2-yl)benzyl)piperazine-1-carboxamide] | 10 | 5.98
O=C(N1CCOCC1)N(Cc1ccc(-c2nnc(C(F)F)o2)cc1F)c1nccs1 [Compound 22018, N-(4-(5-(Difluoromethyl)-1,3,4-oxadiazol-2-yl)-2-fluorobenzyl)-N-(thiazol-2-yl)morpholine-4-carboxamide] | 4 | 5.62
O=C(N1CCOCC1)N(Cc1ccc(-c2nnc(C(F)(F)F)o2)c(F)c1)c1ccccc1 [Compound 21319, N-(3-fluoro-4-(5-(trifluoromethyl)-1,3,4-oxadiazol-2-yl)benzyl)-N-phenylmorpholine-4-carboxamide] | 52 | 6.72
O=C(NCCN1CCN(c2noc3ccccc23)CC1)N(Cc1ccc(-c2nnc(C(F)F)o2)cc1F)c1ccccc1 [Compound 22011, 3-(2-(4-(Benzo[d]isoxazol-3-yl)piperazin-1-yl)ethyl)-1-(4-(5-(difluoromethyl)-1,3,4-oxadiazol-2-yl)-2-fluorobenzyl)-1-phenylurea] | 31 | 6.49

Further molecules by rising pIC50, results first:

HDAC6 selectivity (fold) | pIC50 | SMILES
79 | 6.90 | Cc1noc(C2CCN(CCNC(=O)N(Cc3ccc(-c4nnc(C(F)F)o4)cc3F)c3ccccc3)CC2)n1 [Compound 22005, 1-(4-(5-(Difluoromethyl)-1,3,4-oxadiazol-2-yl)-2-fluorobenzyl)-3-(2-(4-(3-methyl-1,2,4-oxadiazol-5-yl)piperidin-1-yl)ethyl)-1-phenylurea]
83 | 6.92 | CN1CCN(C(=O)N(Cc2ccc(-c3nnc(C(F)(F)F)o3)cn2)c2ccccc2F)CC1 [Compound 21634, N-(2-fluorophenyl)-4-methyl-N-((5-(5-(trifluoromethyl)-1,3,4-oxadiazol-2-yl)pyridin-2-yl)methyl)piperazine-1-carboxamide]
101 | 7.00 | O=C(N1CCS(=O)(=O)CC1)N(Cc1ccc(-c2nnc(C(F)F)o2)cc1F)c1ccsc1 [Compound 22021, N-(4-(5-(Difluoromethyl)-1,3,4-oxadiazol-2-yl)-2-fluorobenzyl)-N-(thiophen-3-yl)thiomorpholine-4-carboxamide 1,1-dioxide]
112 | 7.05 | O=C(N1CCN(C2COC2)CC1)N(Cc1ccc(-c2nnc(C(F)F)o2)cn1)c1ccc(Cl)cc1 [Compound 21947, N-(4-Chlorophenyl)-N-((5-(5-(difluoromethyl)-1,3,4-oxadiazol-2-yl)pyridin-2-yl)methyl)-4-(oxetan-3-yl)piperazine-1-carboxamide]
145 | 7.16 | COc1cccc(N(Cc2ccc(-c3nnc(C(F)F)o3)cc2)C(=O)N2CCS(=O)(=O)CC2)c1 [Compound 21475, N-(4-(5-(difluoromethyl)-1,3,4-oxadiazol-2-yl)benzyl)-N-(3-methoxyphenyl)thiomorpholine-4-carboxamide 1,1-dioxide]
208 | 7.32 | O=C(N1CCOCC1)N(Cc1c(F)cc(-c2nnc(C(F)F)o2)cc1F)c1ccccc1 [Compound 21432, N-(4-(5-(difluoromethyl)-1,3,4-oxadiazol-2-yl)-2,6-difluorobenzyl)-N-phenylmorpholine-4-carboxamide]
218 | 7.34 | CCN1CCN(C(=O)N(Cc2ccc(-c3nnc(C(F)F)o3)cc2)c2ccc(F)cc2)CC1 [Compound 21886, N-(4-(5-(Difluoromethyl)-1,3,4-oxadiazol-2-yl)benzyl)-4-ethyl-N-(4-fluorophenyl)piperazine-1-carboxamide]
248 | 7.40 | Cc1ccc(N(Cc2ccc(-c3nnc(C(F)F)o3)cn2)C(=O)N2CCOCC2)c(F)c1 [Compound 21855, N-((5-(5-(difluoromethyl)-1,3,4-oxadiazol-2-yl)pyridin-2-yl)methyl)-N-(2-fluoro-4-methylphenyl)morpholine-4-carboxamide]
370 | 7.57 | CN(C)[C@@H]1CCN(C(=O)N(Cc2ccc(-c3nnc(C(F)F)o3)cc2F)c2ccc(F)c(Cl)c2)C1 [Compound 21584, (R)—N-(3-chloro-4-fluorophenyl)-N-(4-(5-(difluoromethyl)-1,3,4-oxadiazol-2-yl)-2-fluorobenzyl)-3-(dimethylamino)pyrrolidine-1-carboxamide]
714 | 7.85 | CN1CCC2(CC1)CN(C(=O)N(Cc1ccc(-c3nnc(C(F)F)o3)cc1F)c1ccccc1)C2 [Compound 21498, N-(4-(5-(difluoromethyl)-1,3,4-oxadiazol-2-yl)-2-fluorobenzyl)-7-methyl-N-phenyl-2,7-diazaspiro[3.5]nonane-2-carboxamide]
